The test system of one assay is HSV-1. Kind of assay: Transmission electron microscopy of HSV-1 infected Vero cells, location of virus particles. It counts as cell-based, Herpes simplex virus-1 (Kos strain). The following applies: HSV-1, 18 μM ilaprazole, 24 h. How it is done: FIG. 4. Inhibitory effect of Ilaprazole on HSV-2 and HSV-1 production. Vero cells infected with HSV-2 or HSV-1 at MOI of 0.1 and examined by transmission electron microscopy 24 h later. HSV-2 infected untreated cells (A & B) and cells treated with 18 μM ilaprazole (C & D). HSV-1 infected untreated cells (E & F) and cells treated with 18 μM ilaprazole (G & H). Eighty cells where virus particles were observed were examined. In the presence of ilaprazole, we observe no or very few particles in the cytoplasm. Treated cells also have an accumulation of electron dense material and particles associated with them. In untreated HSV-2 infected cells, we observed an average of 120 particles ranging from 28-204 […], and an average of 16 particles ranging from 10-22 in the nucleus. In treated HSV-2 infected cells, we observed 0 particles in the cytoplasm and an average of 31 particles ranging from 9-56 in the nucleus. In untreated HSV-1 infected cells we observed an average of 135 particles ranging from 12-152 in the cytoplasm, and an average of 35 particles ranging from 10-66 in the nucleus. In treated HSV-1 infected cells, we observed 0 particles in the cytoplasm and an average of 43 particles ranging from 15-166 in the nucleus. Arrows point to virus particles. Nuc, nucleus. Cyt, cytoplasm.
We next carried out a transmission electron microscopic examination of cells infected with HSV-2 at a MOI 0.1 in the presence and absence of 18 μM ilaprazole to determine if this drug causes the accumulation of virus particles in the nucleus of cells similar to tenatoprazole. […] In both heavily infected cells (FIGS. 4A & C) and mildly infected cells (FIGS. 4B & D), treatment lead to particles being detected in the nucleus and arrayed along the nuclear membrane but lacking in the cytosol. […] The lower total infectious virus detected in Table 3 (FIG. 7) is consistent with blockage of the virus passaging out of the nucleus into the cytoplasm where membranes are exchanged and virus becomes infectious. […]

In the next assay the target is ENO1 (Homo sapiens, UniProt P06733). The experiment in a line: FTS assay against unrelated protein ENO1. It counts as binding. The source says:
FIG. 1. Thermal shift data of Tsg101 by lead compound Tenatoprazole (N16). […] (B) Thermal shift data of three human proteins, DHPH, ENO1, and MEK4 not related to Tsg101 by lead compound tenatoprazole. […] (C) The addition of DTT abolishes the Tm shift in the FTS assay, consistent with prazole compounds forming a disulfide bond to Tsg101. Rabe: Rabeprazole, Ila: Ilaprazole, Tenato: tenatoprazole, Panto: pantoprazole, ref: reference.
This specific binding is consistent with a previous NMR structure in which tenatoprazole forms a covalent disulfide bond to Cys73 in the UEV domain of the protein (5). This disulfide bond formation can be prevented by including the reducing agent DTT in the assay (FIG. 1C). The addition of DTT abolished the Tsg101-UEV Tm shift caused by the prazoles. […]
Fluorescence thermal shift (FTS) screening to identify small molecule binding to Tsg101-UEV. […] Discovery of small molecule binding to target protein utilizes the observation that ligand binding affects protein thermal stability, and therefore can be detected through a shift in the protein's thermal denaturation (melting) temperature (Tm). […] A fluorescence dye Sypro-Orange (Invitrogen) was used for assay detection. The dye is excited at 473 nm and has a fluorescence emission at 610 nm. […] Fluorescence was detected on a real-time PCR machine CFX384 (Bio-Rad Laboratories).

These results are taken from patent publication US11666562B2, “Ilaprazole for inhibiting the release of enveloped viruses from cells” (Northwestern University, priority 2020, dated 2023).

Entries after “also recorded” stand apart in the source; their conditions may differ.

Sequence of ENO1 (P06733 whole entry): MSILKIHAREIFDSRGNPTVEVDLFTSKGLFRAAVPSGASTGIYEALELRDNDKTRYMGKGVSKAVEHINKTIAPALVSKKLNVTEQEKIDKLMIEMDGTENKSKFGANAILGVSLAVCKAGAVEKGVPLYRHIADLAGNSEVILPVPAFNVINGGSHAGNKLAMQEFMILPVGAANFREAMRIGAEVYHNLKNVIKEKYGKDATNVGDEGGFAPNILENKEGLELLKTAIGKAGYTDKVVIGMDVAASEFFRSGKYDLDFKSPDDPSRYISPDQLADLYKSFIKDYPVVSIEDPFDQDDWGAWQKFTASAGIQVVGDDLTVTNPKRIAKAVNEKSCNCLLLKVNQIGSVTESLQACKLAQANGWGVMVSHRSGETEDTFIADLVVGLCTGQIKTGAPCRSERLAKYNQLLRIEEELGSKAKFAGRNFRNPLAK

On to `COc1ccnc(C[S+]([O-])c2nc3ccc(-n4cccc4)cc3[nH]2)c1C` (stereo not shown) [Ilaprazole, 2-[(4-methoxy-3-methylpyridin-2-yl)methylsulfinyl]-6-pyrrol-1-yl-1H-benzimidazole], for which, in the assay on HSV-1, the “Average number of virus particles in the nucleus” value is 43 particles, the “Range of number of virus particles in the nucleus” value was 15-166 particles and the “Virus particles in the cytoplasm” value is given as 0 particles.
With `COc1ccc2[nH]c([S+]([O-])Cc3ncc(C)c(OC)c3C)nc2n1` (stereo not shown) [Tenatoprazole], the “Effect on thermal stability (Tm shift) of ENO1” value at ENO1 is recorded as “negligible; also recorded: did not observe a Tm shift”.
